We go through one substance from patent publication US9821010B2, “Methods for expansion or depletion of T-regulatory cells” (The General Hospital Corporation, priority 2013, dated 2017).

Entries after “also recorded” stand apart in the source; their conditions may differ.

The subject of assay [1] is expanded CD4+CD25+ cells. As to the kind of experiment: Intracellular cytokine production of expanded Tregs after PMA and ionomycin. It counts as cell-based, human. The settings on record: PMA and ionomycin 24 hours; Tregs expanded with rapamycin. On the procedure:
Expanded CD4^+CD25^+ cells were stimulated with phorbol myristate acetate (PMA) (2 ng/ml) and ionomycin (500 ng/ml) (Sigma) for 24 hours. Monensin (GolgiStop, BD Biosciences) was added for the last 4 hours of incubation. Cells were fixed and permeabilized using Human FOXP3 Buffer Set, followed by staining with fluorochrome-conjugated IFNγ and IL-10 mAbs.
One of the reasons for these Tregs showing high suppression capacity over CD8+ T cells may be due to Tregs lacking the ability to produce IFNγ.

In assay [2] the test system is freshly isolated human CD4+ cells. The assay can be described thus: FOXP3 induction by TNF-α in freshly isolated human CD4+ cells. Type of assay: cell-based. On the procedure: I cultured freshly isolated human CD4+ cells from 14 human subjects only with TNF-α for 16 hours (FIG. 1B). […] IL-2 is important for Tregs induction and maintenance in mice. […] Thus, the data in FIGS. 1B and 1C confirm that TNF-α […] in vitro.

Assay [3] deals with CD25+FOXP3− cell population. As to the kind of experiment: Overnight incubation of CD4+ cells with IL-2: CD25+FOXP3- cell population. It counts as cell-based, human. The settings on record: overnight incubation with IL-2. On the procedure:
Despite high expression of TNFR2 on Tregs, some TNFR2 expression is also observable on CD4+ T cells that are not true Tregs because they only express intermediate levels of CD25, i.e., CD4^+CD25^mid cells. I therefore studied the impact of overnight incubation on CD25^mid cell subpopulations of IL-2 alone, IL-2 and TNF-α, or IL-2 and TNFR2 agonist, or IL-2 and TNFR2 antagonist. […] However, I observed suppression with IL-2 and TNFR2 antagonist relative to the other three groups.

Where [4] appears, read: co-incubation with IL-2, compared to IL-2 alone.

As to TNF-α, the “percentage of IFNγ+ cells / IFNγ production” value in assay [1] is on record as “lowest percentages of IFNγ+ cells”. Moreover, the “induction of Tregs (inducible FOXP3)” value is reported as “no induction of Tregs; also recorded: does not induce FOXP3” in assay [2] (TNF-α alone, 16 hours, 14 subjects) and “significant increase in Tregs over IL-2 alone; also recorded: does induce it to higher levels” in assay [2] (setting [4]). For the same substance, the “percentage of CD4+CD25hi FOXP3 cells (flow cytometry)” value in assay [2] (setting [4]) was “increased the percentage of CD4+CD25^hi FOXP3 cells; also recorded: greater intracellular induction of FOXP3”. Further, the “proportion of CD25hiFOXP3− cells” value in assay [3] is listed as “rise in the proportion of CD25^hiFOXP3^− cells”; in assay [3] (listed as TNF), “Significant percentage increases”.
